Test results reported in the Kinase Knowledgebase extract (Sharma et al. 2016).

Columns and labels:
[1] = molecular target: EGFR (human), P00533 [L858R]
[2] = molecular target: EGFR (human), P00533 [WT]
EGFR (human) [3] = molecular target: EGFR (human) (UniProt P00533); conditions: h1975
EGFR (human) [4] = molecular target: EGFR (human) (UniProt P00533); conditions: a549
EGFR (human) [5] = molecular target: EGFR (human) (UniProt P00533); conditions: hcc827

Chain of EGFR (human) (P00533 whole entry, looked up): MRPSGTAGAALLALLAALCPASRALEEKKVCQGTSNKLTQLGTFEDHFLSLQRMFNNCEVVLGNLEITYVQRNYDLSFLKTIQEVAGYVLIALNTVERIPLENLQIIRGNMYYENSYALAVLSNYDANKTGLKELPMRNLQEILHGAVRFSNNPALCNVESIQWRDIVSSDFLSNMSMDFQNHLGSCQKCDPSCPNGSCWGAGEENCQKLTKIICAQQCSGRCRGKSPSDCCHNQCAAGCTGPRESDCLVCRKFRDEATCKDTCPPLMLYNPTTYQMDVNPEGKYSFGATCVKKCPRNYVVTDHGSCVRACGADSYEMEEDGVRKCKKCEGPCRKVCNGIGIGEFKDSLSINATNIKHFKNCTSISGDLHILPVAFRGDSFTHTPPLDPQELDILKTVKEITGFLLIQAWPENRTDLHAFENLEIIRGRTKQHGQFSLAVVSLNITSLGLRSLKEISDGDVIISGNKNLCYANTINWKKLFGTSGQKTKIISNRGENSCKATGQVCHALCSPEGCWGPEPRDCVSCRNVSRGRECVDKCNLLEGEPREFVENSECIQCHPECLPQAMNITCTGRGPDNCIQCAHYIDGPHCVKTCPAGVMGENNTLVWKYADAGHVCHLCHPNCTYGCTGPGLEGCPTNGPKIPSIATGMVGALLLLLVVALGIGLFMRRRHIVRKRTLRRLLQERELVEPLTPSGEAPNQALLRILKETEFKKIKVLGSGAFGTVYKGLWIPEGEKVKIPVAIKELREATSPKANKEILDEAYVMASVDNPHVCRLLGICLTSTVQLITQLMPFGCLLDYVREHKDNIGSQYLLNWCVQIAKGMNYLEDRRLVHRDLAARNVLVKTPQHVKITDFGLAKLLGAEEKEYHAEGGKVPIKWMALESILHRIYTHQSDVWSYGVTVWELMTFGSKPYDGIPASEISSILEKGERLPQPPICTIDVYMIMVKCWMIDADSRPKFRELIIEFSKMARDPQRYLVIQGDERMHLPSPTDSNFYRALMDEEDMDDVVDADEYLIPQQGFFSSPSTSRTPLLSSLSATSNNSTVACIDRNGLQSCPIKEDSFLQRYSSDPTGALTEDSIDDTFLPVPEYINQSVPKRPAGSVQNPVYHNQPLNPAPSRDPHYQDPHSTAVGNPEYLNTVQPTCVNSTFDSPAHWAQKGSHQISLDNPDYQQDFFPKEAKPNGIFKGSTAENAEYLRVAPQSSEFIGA
Chain of EGFR (human), P00533 [WT] (P00533 whole entry, looked up): as above
Chain of EGFR (human), P00533 [L858R] (P00533 whole entry L858R, looked up): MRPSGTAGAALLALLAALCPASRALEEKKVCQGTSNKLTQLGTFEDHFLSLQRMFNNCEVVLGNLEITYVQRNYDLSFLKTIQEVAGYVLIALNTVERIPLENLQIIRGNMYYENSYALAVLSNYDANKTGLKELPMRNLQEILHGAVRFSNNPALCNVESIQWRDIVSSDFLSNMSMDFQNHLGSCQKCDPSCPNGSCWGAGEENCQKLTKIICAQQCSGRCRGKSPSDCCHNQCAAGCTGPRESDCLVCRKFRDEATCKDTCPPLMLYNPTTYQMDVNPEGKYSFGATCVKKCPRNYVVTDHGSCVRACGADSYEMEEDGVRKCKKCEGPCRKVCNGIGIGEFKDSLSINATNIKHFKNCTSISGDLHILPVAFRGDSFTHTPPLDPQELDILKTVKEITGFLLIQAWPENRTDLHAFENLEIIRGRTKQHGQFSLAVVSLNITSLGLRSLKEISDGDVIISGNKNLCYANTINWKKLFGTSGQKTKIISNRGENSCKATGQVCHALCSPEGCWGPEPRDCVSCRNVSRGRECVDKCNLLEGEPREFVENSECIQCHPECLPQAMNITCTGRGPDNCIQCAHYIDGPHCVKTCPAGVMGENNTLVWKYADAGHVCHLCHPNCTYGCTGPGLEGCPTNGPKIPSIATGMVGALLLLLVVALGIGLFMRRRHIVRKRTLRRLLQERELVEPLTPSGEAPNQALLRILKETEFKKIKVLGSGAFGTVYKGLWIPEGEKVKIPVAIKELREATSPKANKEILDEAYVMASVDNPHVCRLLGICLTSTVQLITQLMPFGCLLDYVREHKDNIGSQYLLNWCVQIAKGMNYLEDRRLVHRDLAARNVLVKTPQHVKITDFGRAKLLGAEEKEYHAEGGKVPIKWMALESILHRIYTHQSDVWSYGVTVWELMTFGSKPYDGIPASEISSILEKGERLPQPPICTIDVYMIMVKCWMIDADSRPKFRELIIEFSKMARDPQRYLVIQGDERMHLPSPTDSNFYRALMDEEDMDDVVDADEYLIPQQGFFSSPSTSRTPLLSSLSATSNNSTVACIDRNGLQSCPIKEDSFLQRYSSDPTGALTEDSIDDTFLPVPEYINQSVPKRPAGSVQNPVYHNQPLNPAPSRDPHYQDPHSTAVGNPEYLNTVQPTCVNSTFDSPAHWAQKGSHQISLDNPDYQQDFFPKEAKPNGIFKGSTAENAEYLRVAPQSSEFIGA

IC50 [1] [nM]	IC50 [2] [nM]	IC50 (EGFR (human) [3]) [nM]	IC50 (EGFR (human) [4]) [nM]	IC50 (EGFR (human) [5]) [nM]	SMILES
> 16000	> 16000	1460	1190	2510	COc1cc2c(Oc3ccc(NC(=O)C4=C(C)N(C)C(c5ccccc5)C4=O)cc3F)ccnc2cc1OCCCN1CCOCC1 (configuration not stated)
> 16000	7670	1060	1240	2580	COc1cc2c(Oc3ccc(NC(=O)C4=C(C)N(C)C(c5ccccc5)C4=O)cc3F)ccnc2cc1OCCCN1CCN(C)CC1 (configuration not stated)
		> 10000	> 10000		COc1cc2c(Oc3ccc(NS(=O)(=O)c4ccc(-c5cnn(C)c5)cc4)cc3F)ccnc2cc1OCCCN1CCN(C)CC1
